Measurements reported in ChEMBL document CHEMBL1148765, “Design, synthesis, and estrogenic activity of a novel estrogen receptor modulator--a hybrid structure of 17beta-estradiol and vitamin E in hippocampal neurons” (J Med Chem, 2007).
pIC50: −log10 of the molar value.

How the values were obtained:
[1] = species on record: Homo sapiens; assay: Selectivity for ERbeta over ERalpha
[2] = Increase in Bcl-XL expression in rat hippocampal neurons at 10 nM after 48 hrs by Western immunoblotting relative to control; format: functional, Hippocampus, Hippocampal neurone
[3] = Effect on glutamate-induced loss of metabolic viability in rat hippocampal neurons assessed as increase in neuronal viability at 1 nM after 48 hrs relative to glutamate; format: functional, Hippocampus, Hippocampal neurone
[4] = Increase in Bcl2 expression in rat hippocampal neurons at 10 nM after 48 hrs by Western immunoblotting relative to control; format: functional, Hippocampus, Hippocampal neurone
[5] = Effect on glutamate-induced loss of metabolic viability in rat hippocampal neurons assessed as increase in neuronal viability at 10 nM after 48 hrs relative to glutamate; format: functional, Hippocampus, Hippocampal neurone
[6] = Effect on glutamate-induced loss of metabolic viability in rat hippocampal neurons assessed as increase in neuronal viability at 1000 nM after 48 hrs relative to glutamate; format: functional, Hippocampus, Hippocampal neurone
[7] = Effect on glutamate-induced loss of metabolic viability in rat hippocampal neurons assessed as increase in neuronal viability at 100 nM after 48 hrs relative to glutamate; format: functional, Hippocampus, Hippocampal neurone
[8] = Effect on glutamate-induced neurotoxicity in rat hippocampal neurons assessed increase in neuronal membrane integrity at 1 nM after 48 hrs relative to glutamate; format: functional, Hippocampus, Hippocampal neurone
[9] = target: T1, Estrogen receptor (Homo sapiens, UniProt P03372)
T1 sequence (P03372 whole entry): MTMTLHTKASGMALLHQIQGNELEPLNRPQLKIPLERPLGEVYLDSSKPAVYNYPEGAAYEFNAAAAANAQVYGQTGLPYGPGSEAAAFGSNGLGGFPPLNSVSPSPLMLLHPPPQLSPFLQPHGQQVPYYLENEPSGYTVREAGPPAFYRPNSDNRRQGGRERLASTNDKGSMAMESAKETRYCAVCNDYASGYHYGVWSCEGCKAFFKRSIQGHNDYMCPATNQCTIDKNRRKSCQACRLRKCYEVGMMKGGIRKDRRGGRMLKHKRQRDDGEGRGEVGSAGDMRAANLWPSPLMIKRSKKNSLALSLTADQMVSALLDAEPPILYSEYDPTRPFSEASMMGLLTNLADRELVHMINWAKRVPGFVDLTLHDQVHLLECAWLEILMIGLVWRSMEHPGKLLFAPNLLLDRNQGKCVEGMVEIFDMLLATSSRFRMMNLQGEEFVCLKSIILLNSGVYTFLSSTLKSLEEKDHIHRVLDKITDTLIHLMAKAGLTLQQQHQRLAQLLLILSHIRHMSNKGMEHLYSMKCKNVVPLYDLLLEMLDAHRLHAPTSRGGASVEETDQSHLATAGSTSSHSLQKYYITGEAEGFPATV
Description: Binding affinity to human ERalpha

[10] = Effect on glutamate-induced neurotoxicity in rat hippocampal neurons assessed increase in neuronal membrane integrity at 100 nM after 48 hrs relative to glutamate; format: functional, Hippocampus, Hippocampal neurone
[11] = Increase in ERK2 phosphorylation in rat hippocampal neurons at 100 nM after 30 mins by Western immunoblotting relative to control; format: functional, Hippocampus, Hippocampal neurone
[12] = Effect on glutamate-induced neurotoxicity in rat hippocampal neurons assessed increase in neuronal membrane integrity at 10 nM after 48 hrs relative to glutamate; format: functional, Hippocampus, Hippocampal neurone
[13] = target: Estrogen receptor beta (Homo sapiens, UniProt Q92731)
Chain of Estrogen receptor beta (Q92731 whole entry): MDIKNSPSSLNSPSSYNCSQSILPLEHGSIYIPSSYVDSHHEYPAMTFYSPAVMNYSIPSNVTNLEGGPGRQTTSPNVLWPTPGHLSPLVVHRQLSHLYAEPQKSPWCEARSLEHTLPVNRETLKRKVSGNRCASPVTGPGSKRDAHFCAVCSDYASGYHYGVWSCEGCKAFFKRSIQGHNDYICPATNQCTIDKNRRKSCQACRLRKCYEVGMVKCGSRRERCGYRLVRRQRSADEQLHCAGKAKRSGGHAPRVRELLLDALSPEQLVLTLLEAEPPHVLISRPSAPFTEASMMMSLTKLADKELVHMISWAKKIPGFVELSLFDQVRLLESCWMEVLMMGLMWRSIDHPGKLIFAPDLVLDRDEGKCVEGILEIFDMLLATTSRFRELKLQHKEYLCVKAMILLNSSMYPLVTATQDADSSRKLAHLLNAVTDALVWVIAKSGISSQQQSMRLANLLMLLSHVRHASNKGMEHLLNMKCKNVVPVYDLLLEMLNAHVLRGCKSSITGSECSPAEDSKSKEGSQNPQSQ
Description: Binding affinity to human ERbeta

[14] = tested on: Hippocampal neurone; assay: Increase in Akt phosphorylation in rat hippocampal neurons at 100 nM after 30 mins by Western immunoblotting relative to control; format: tissue-based; conditions: Hippocampus
[15] = Effect on glutamate-induced neurotoxicity in rat hippocampal neurons assessed increase in neuronal membrane integrity at 1000 nM after 48 hrs relative to glutamate; format: functional, Hippocampus, Hippocampal neurone
[16] = Increase in spinophilin expression in rat hippocampal neurons at 10 nM after 48 hrs by Western immunoblotting relative to control; format: functional, Hippocampus, Hippocampal neurone

Compound	Selectivity ratio [1]	Activity [2] [%]	Activity [3] [%]	Activity [4] [%]	Activity [5] [%]	Activity [6] [%]	Activity [7] [%]	Activity [8] [%]	pIC50 [9]	Activity [10] [%]	Activity [11] [%]	Activity [12] [%]	pIC50 [13]	Activity [14] [%]	Activity [15] [%]	Activity [16] [%]
Oc1ccc(/C=C/c2cc(O)cc(O)c2)cc1	48															
CC(C)CCC[C@@H](C)CCC[C@@H](C)CCC[C@@H]1Cc2cc(O)ccc2[C@H]2CC[C@]3(C)[C@@H](O)CC[C@H]3[C@H]12		58	2.7	23.4	9.3	25.6	28.4	38.6	6.71	67	46.3	44.1	6.57	139	59.1	61.7
